Columns and labels:
[1] = Determination of brain/plasma ratios for NAD0241 and comparison with NAD0180 (Example 56E); format: in vivo, Wistar Han Rats; settings: rats, 5 mg/kg i.v., 1 hour post-administration
Description: Application of Compound: 5 mg/kg of NAD 241 and NAD0180 each in a vehicle of 1.5 mL/kg PEG 400 Macrogol Ph. Eur. were applied i.v. through the femoral vein to two groups (n=3) of Wistar Han Rats weighing between 240-270 g. The application was performed under anaesthesia, initiated with 3.5% Isofluorane/O2, then maintained at 1% during compound application and suture of the vein. 200 μL of local anaesthetic lidocaine were locally administered. 1 hour after application of the compound 200 μl of blood were obtained by tail vein incision. Immediately following the blood sampling rats were terminated by decapitation after brief CO2 anaesthesia Brains were resected and weighed. Plasma was obtained by centrifugation of the tail vein blood at 13000 g for 20 minutes at 4° C. […]
Establishment of Extraction Recovery and Standard Curve for NAD0241 and NAD0180: 100 μL of plasma or 0.5 g brain tissue homogenate in saturated NaCl, obtained from control rats, were spiked with NAD0241 and NAD0180, respectively, to produce concentrations ranging from 1 ng/mL to 5 μg/mL. […] Quantitative analysis of the extracts was performed by HPLC with fluorescence detection. […] Fluorescence detection and quantitation by peak area was performed with a G1321A (Agilent Tech 1100 series) detector at excitation and emission wavelengths of 317 nm and 542 nm, respectively, for NAD0241, and 315 nm and 565 nm for NAD0180. […]

His tagged ERK2 = His tagged ERK2 (Homo sapiens, UniProt P28482); assay: Extracellular signal Regulated Kinase 2 inhibition assay (ERK2), radioactive filtermat format; format: biochemical; settings: 10 μM compound
Description: (§1) The ERK2 kinase activity assay utilizes a radioactivity-based format in a 96-well PCR plate with radioactive readout. The ERK2 activity was assayed in a 25 μL assay mixture containing 25 mM HEPES (pH 7.0), 250 μM ATP, 1 mM MgCl2, 1 mM DTT, 2% DMSO, 150 ng/mL Myelin Basic Protein (MBP, Sigma M-1891), and 13.6 ng/mL His tagged ERK2 (specific activity=38.1 nmol/min*mg). Compounds were screened for inhibition of the ERK2 kinase activity at a concentration of 10 μM. The kinase reaction was allowed to proceed at 37° C. for 30 minutes, then reaction was stopped by the addition of 5 μl of 0.5M EDTA (pH 8). 15 μL of each solution were then spotted onto the corresponding square of a filtermat (8×12 glassfibre mat 90×120 mm, PE-Wallac 1450-421). The filtermat was allowed to dry and washed once with 10% TCA, 2% PPA, 500 mM NaCl each for 30 minutes at rt. Two further washings in 10% TCA and 2% PPA for 30 minutes were performed, then a final 30 minute wash in 99% EtOH at rt was done and the filtermat was air dried. The dry filtermat was then placed in a sample bag with a Meltilex sheet (Melt-on scintillator sheets 73×109 mm, PE-Wallac 1450-441 for filtermat A) over the filtermat. The bag was trimmed to fit into the microplate heatsealer (PE-Wallac 1495-021). The heatsealer is used to melt the Meltilex on the filtermat. The bag containing the filtermat and the melted Meltilex was then placed into a filter cassette and counted using the Microbeta Jet Scintillation and Luminescence Counter PE-Wallac 1450.

PKC (rat brain) = assay: Protein Kinase C inhibition assay (PKC); format: biochemical; settings: 10 μM compound
Description: as §1
The PKC kinase activity assay utilizes a radioactivity-based format in a 96-well PCR plate with radioactive readout. The PKC activity was assayed in a 25 μL assay mixture containing 25 mM HEPES (pH 7.0), 250 μM ATP, 10 mM MgCl2, 1 mM DTT, 1 mM EDTA (pH 8), 2 mM CaCl2, 2% DMSO, 250 ng/mL Histone H1 (Roche 1 004 875), and 165 ng/mL PKC (rat brain, Calbiochem 539494, specific activity=1600 nmol/min*mg). Compounds were screened for inhibition of the PKC kinase activity at a concentration of 10 μM. The kinase reaction was allowed to proceed at 37° C. for 30 minutes, then the reaction was stopped by addition of 5 μL of 0.5M EDTA (pH 8). The remainder of the protocol is identical to the one reported for ERK2.

His tagged ERK2, sequence (P28482 whole entry): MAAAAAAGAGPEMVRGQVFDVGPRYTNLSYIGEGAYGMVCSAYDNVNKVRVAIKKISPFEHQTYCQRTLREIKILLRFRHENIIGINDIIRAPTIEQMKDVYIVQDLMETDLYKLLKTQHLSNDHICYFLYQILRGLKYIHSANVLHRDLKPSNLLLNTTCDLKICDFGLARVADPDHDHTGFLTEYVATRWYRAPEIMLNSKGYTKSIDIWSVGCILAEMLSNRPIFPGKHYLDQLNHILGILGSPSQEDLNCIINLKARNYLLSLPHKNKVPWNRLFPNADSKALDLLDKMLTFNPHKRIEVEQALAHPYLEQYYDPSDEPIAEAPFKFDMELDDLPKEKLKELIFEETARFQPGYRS

- brain/plasma ratio fold difference vs NAD0180 at 1 h ([1]; Wistar Han, rat, brain and plasma, iv): > 30 fold
- ability to pass the BBB / blood-brain barrier penetration ([1]; NAD0241 vs NAD0180): pass more readily the BBB
- inhibition at 10 µM (His tagged ERK2): 92.3%
- % Inhibition PKC (PKC (rat brain)): 91.62%
SMILES: NC(=O)[C@]1(N)CC2CC1n1c3ccccc3c3c4c(c5c6ccccc6n2c5c31)C(=O)NC4=O (mixture of isomers) [Compound 5]

Source: patent publication US20070149481A1, “N,n-bridged, nitrogen-substituted carbacyclic indolocarbazoles as protein kinase inhibitors” (priority 2002, published 2007)
